According to ChEMBL document CHEMBL1201862, “PubChem BioAssay data set” (2004):
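Briefly, cells in 96-well plates were exposed to five compound concentrations for 48 h, and endpoints were estimated by linear interpolation. Here, GI50 denotes the concentration required for 50% inhibition of growth.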 Calls of active or inactive are those of the source. Rule as the data show it: active = GI50 up to about 1.1 µM and inactive = higher.

Assays:
Experiment in all cases: NCI anticancer screen, dose series, 48 h
A549 = system: A549
CAKI-1 = system: CAKI-1
HCT-15 = system: HCT-15
HOP-92 = system: HOP-92
Hs-578T = system: Hs-578T
M14 = system: M14
MDA-MB-435 = system: MDA-MB-435
MDA-N = system: MDA-N
MOLT-4 = system: MOLT-4
NCI/ADR-RES = system: NCI/ADR-RES
OVCAR-3 = system: OVCAR-3
OVCAR-5 = system: OVCAR-5
SF-539 = system: SF-539
SK-MEL-28 = system: SK-MEL-28
SK-MEL-5 = system: SK-MEL-5
SNB-19 = system: SNB-19
T47D = system: T47D
TK-10 = system: TK-10
UO-31 = system: UO-31
K562 = system: K562

| Structure (SMILES) | GI50 (A549) | GI50 (CAKI-1) | GI50 (HCT-15) | GI50 (HOP-92) | GI50 (Hs-578T) | GI50 (M14) | GI50 (MDA-MB-435) | GI50 (MDA-N) | GI50 (MOLT-4) | GI50 (NCI/ADR-RES) | GI50 (OVCAR-3) | GI50 (OVCAR-5) | GI50 (SF-539) | GI50 (SK-MEL-28) | GI50 (SK-MEL-5) | GI50 (SNB-19) | GI50 (T47D) | GI50 (TK-10) | GI50 (UO-31) | GI50 (K562) |
| --- | --- | --- | --- | --- | --- | --- | --- | --- | --- | --- | --- | --- | --- | --- | --- | --- | --- | --- | --- | --- |
| O=C1CCCC2C3CC(CN12)C1CCCCN1C3.[O-][Cl+3]([O-])([O-])O (stereo not given) | > 100 µM (inactive) | > 100 µM (inactive) | > 100 µM | > 100 µM (inactive) | > 100 µM (inactive) | > 100 µM (inactive) | > 100 µM (inactive) | > 100 µM (inactive) | > 100 µM (inactive) | > 100 µM (inactive) | > 100 µM (inactive) | > 100 µM (inactive) | > 100 µM (inactive) | > 100 µM (inactive) | > 100 µM (inactive) | > 100 µM (inactive) | > 100 µM (inactive) | > 100 µM (inactive) | > 100 µM (inactive) | – |
| COC1C(N(C)C)=C(c2ccccc2)C(=O)N2CCc3ccccc3C12 (stereo not given) | > 100 µM (inactive) | > 100 µM (inactive) | > 100 µM | > 100 µM (inactive) | > 100 µM (inactive) | > 100 µM (inactive) | > 100 µM (inactive) | > 100 µM (inactive) | 79.1 µM (inactive) | > 100 µM (inactive) | – | > 100 µM (inactive) | > 100 µM (inactive) | > 100 µM (inactive) | > 100 µM (inactive) | > 100 µM (inactive) | > 100 µM (inactive) | > 100 µM (inactive) | > 100 µM (inactive) | – |
| O=c1[nH]c2nccn2c2c1SCCN2 | > 100 µM (inactive) | > 100 µM (inactive) | > 100 µM | – | > 100 µM (inactive) | > 100 µM (inactive) | > 100 µM (inactive) | > 100 µM (inactive) | > 100 µM (inactive) | > 100 µM (inactive) | > 100 µM (inactive) | > 100 µM (inactive) | > 100 µM (inactive) | > 100 µM (inactive) | > 100 µM (inactive) | > 100 µM (inactive) | > 100 µM (inactive) | > 100 µM (inactive) | – | > 100 µM (inactive) |
| CC1=C2C(=O)NN=C2CCN1c1ccc(Br)cc1 | > 100 µM (inactive) | > 100 µM (inactive) | 93.5 µM | > 100 µM (inactive) | > 100 µM (inactive) | > 100 µM (inactive) | > 100 µM (inactive) | > 100 µM (inactive) | 9.62 µM (inactive) | > 100 µM (inactive) | > 100 µM (inactive) | > 100 µM (inactive) | > 100 µM (inactive) | > 100 µM (inactive) | > 100 µM (inactive) | > 100 µM (inactive) | 70.3 µM (inactive) | > 100 µM (inactive) | 54.3 µM (inactive) | – |
| Clc1ccc(-c2nnc(C34CC5CC(CC(C5)C3)C4)o2)cc1 | > 100 µM (inactive) | > 100 µM (inactive) | > 100 µM | > 100 µM (inactive) | > 100 µM (inactive) | > 100 µM (inactive) | > 100 µM (inactive) | > 100 µM (inactive) | > 100 µM (inactive) | > 100 µM (inactive) | > 100 µM (inactive) | > 100 µM (inactive) | > 100 µM (inactive) | > 100 µM (inactive) | > 100 µM (inactive) | > 100 µM (inactive) | > 100 µM (inactive) | – | 3.78 µM (inactive) | > 100 µM (inactive) |
| O=C(O)c1ccccc1/C=C1\Cc2ccccc2C1=O | > 100 µM (inactive) | > 100 µM (inactive) | > 100 µM | – | > 100 µM (inactive) | > 100 µM (inactive) | > 100 µM (inactive) | > 100 µM (inactive) | > 100 µM (inactive) | > 100 µM (inactive) | > 100 µM (inactive) | > 100 µM (inactive) | > 100 µM (inactive) | > 100 µM (inactive) | 47.2 µM (inactive) | > 100 µM (inactive) | > 100 µM (inactive) | > 100 µM (inactive) | > 100 µM (inactive) | > 100 µM (inactive) |
| COc1ccc(NC(=O)CSc2nnc(-c3ccc(/N=C\c4ccc(Cl)cc4)cc3)o2)cc1 | > 100 µM (inactive) | – | 4.78 µM | 14.4 µM (inactive) | 77.6 µM (inactive) | 26.5 µM (inactive) | 34 µM (inactive) | 39.6 µM (inactive) | 13.9 µM (inactive) | 42.3 µM (inactive) | 21.4 µM (inactive) | > 100 µM (inactive) | – | > 45.1 µM (inactive) | 27.3 µM (inactive) | 29.9 µM (inactive) | 21.2 µM (inactive) | > 100 µM (inactive) | > 54.7 µM (inactive) | 11 µM (inactive) |
